Assay results published in US20230348442A1, “GALECTIN-3 INHIBITING 2-HYDROXYCYCLOALKANE-1-CARBAMOYL DERIVATIVES” (Idorsia Pharmaceuticals Ltd, priority 2020, published 2023).

Target: human Gal-3 (hGal-3) (Homo sapiens (Human), UniProt P17931)
Experiment: competitive binding assay: binding of biotinylated hGal-3 to microplate-adsorbed asialofetuin (ASF), spectrophotometric
Settings: Activity on hGal-3; mean values of several measurements
How it was run: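 Spectrophotometric readout (streptavidin-peroxidase, ABTS) of biotinylated galectin retained on ASF-coated wells. Biotinylated hGal-1 or hGal-3, 300-1000 ng/mL, co-incubated with test compound 3 h at 4° C, then washed. Mean IC50 from repeat runs.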

Sequence of human Gal-3 (hGal-3) (P17931 whole entry): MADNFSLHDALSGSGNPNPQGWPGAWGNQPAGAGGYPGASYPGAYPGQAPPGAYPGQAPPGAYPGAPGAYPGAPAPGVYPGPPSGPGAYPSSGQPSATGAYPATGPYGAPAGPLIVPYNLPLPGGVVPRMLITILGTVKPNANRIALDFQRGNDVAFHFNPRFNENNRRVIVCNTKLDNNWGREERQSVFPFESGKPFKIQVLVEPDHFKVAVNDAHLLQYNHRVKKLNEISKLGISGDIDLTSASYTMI

CO[C@@H]1[C@@H](n2cc(-c3cc(F)cc(Br)c3)nn2)[C@@H](O)[C@@H](CO)O[C@H]1C(=O)N(c1cc(C)cc(C#N)c1)[C@@H]1CC[C@H]1O [Example 2.10.8R, (2R,3R,4S,5R,6R)-4-(4-(3-bromo-5-fluorophenyl)-1H-1,2,3-triazol-1-yl)-N-(3-cyano-5-methylphenyl)-5-hydroxy-N-((1R,2R)-2-hydroxycyclobutyl)-6-(hydroxymethyl)-3-methoxytetrahydro-2H-pyran-2-carboxamide]
IC50: 1190 nM

COc1cc(C#N)cc(N(C(=O)[C@@H]2O[C@H](CO)[C@H](O)[C@H](n3cc(-c4cc(F)cc(Br)c4)nn3)[C@H]2OC)[C@H]2CC[C@@H]2O)c1 [Example 2.10.9, (2R,3R,4S,5R,6R)-4-(4-(3-bromo-5-fluorophenyl)-1H-1,2,3-triazol-1-yl)-N-(3-cyano-5-methoxyphenyl)-5-hydroxy-N-((1S,2S)-2-hydroxycyclobutyl)-6-(hydroxymethyl)-3-methoxytetrahydro-2H-pyran-2-carboxamide]
IC50: 224 nM

COc1cc(C#N)cc(N(C(=O)[C@@H]2O[C@H](CO)[C@H](O)[C@H](n3cc(-c4cc(F)cc(Br)c4)nn3)[C@H]2OC)[C@@H]2CC[C@H]2O)c1 [Example 2.10.9R, (2R,3R,4S,5R,6R)-4-(4-(3-bromo-5-fluorophenyl)-1H-1,2,3-triazol-1-yl)-N-(3-cyano-5-methoxyphenyl)-5-hydroxy-N-((1R,2R)-2-hydroxycyclobutyl)-6-(hydroxymethyl)-3-methoxytetrahydro-2H-pyran-2-carboxamide]
IC50: 976 nM

CO[C@@H]1[C@@H](n2cc(-c3ccc(C)c(F)c3F)nn2)[C@@H](O)[C@@H](CO)O[C@H]1C(=O)N(c1cc(Cl)cc(Cl)c1)[C@H]1CC[C@@H]1O [Example 2.11.2, (2R,3R,4S,5R,6R)-N-(3,5-dichlorophenyl)-4-(4-(2,3-difluoro-4-methylphenyl)-1H-1,2,3-triazol-1-yl)-5-hydroxy-N-((1S,2S)-2-hydroxycyclobutyl)-6-(hydroxymethyl)-3-methoxytetrahydro-2H-pyran-2-carboxamide]
IC50: 42.7 nM

CO[C@@H]1[C@@H](n2cc(-c3ccc(C)c(F)c3F)nn2)[C@@H](O)[C@@H](CO)O[C@H]1C(=O)N(c1cc(Cl)cc(Cl)c1)[C@@H]1CC[C@H]1O [Example 2.11.2R, (2R,3R,4S,5R,6R)-N-(3,5-dichlorophenyl)-4-(4-(2,3-difluoro-4-methylphenyl)-1H-1,2,3-triazol-1-yl)-5-hydroxy-N-((1R,2R)-2-hydroxycyclobutyl)-6-(hydroxymethyl)-3-methoxytetrahydro-2H-pyran-2-carboxamide]
IC50: 74.8 nM

CO[C@@H]1[C@@H](n2cc(-c3ccc(C)c(F)c3F)nn2)[C@@H](O)[C@@H](CO)O[C@H]1C(=O)N(c1cc(Br)cc(C#N)c1)[C@H]1CC[C@@H]1O [Example 2.11.5, (2R,3R,4S,5R,6R)-N-(3-bromo-5-cyanophenyl)-4-(4-(2,3-difluoro-4-methylphenyl)-1H-1,2,3-triazol-1-yl)-5-hydroxy-N-((1S,2S)-2-hydroxycyclobutyl)-6-(hydroxymethyl)-3-methoxytetrahydro-2H-pyran-2-carboxamide]
IC50: 17.1 nM

CO[C@@H]1[C@@H](n2cc(-c3ccc(C)c(F)c3F)nn2)[C@@H](O)[C@@H](CO)O[C@H]1C(=O)N(c1cc(Br)cc(C#N)c1)[C@@H]1CC[C@H]1O [Example 2.11.5R, (2R,3R,4S,5R,6R)-N-(3-bromo-5-cyanophenyl)-4-(4-(2,3-difluoro-4-methylphenyl)-1H-1,2,3-triazol-1-yl)-5-hydroxy-N-((1R,2R)-2-hydroxycyclobutyl)-6-(hydroxymethyl)-3-methoxytetrahydro-2H-pyran-2-carboxamide]
IC50: 98.7 nM

CO[C@@H]1[C@@H](n2cc(-c3ccc(Br)c(F)c3F)nn2)[C@@H](O)[C@@H](CO)O[C@H]1C(=O)N(c1cc(Cl)cc(Cl)c1)[C@H]1CC[C@@H]1O [Example 2.12.2, (2R,3R,4S,5R,6R)-4-(4-(4-bromo-2,3-difluorophenyl)-1H-1,2,3-triazol-1-yl)-N-(3,5-dichlorophenyl)-5-hydroxy-N-((1S,2S)-2-hydroxycyclobutyl)-6-(hydroxymethyl)-3-methoxytetrahydro-2H-pyran-2-carboxamide]
IC50: 180 nM

CO[C@@H]1[C@@H](n2cc(-c3ccc(Br)c(F)c3F)nn2)[C@@H](O)[C@@H](CO)O[C@H]1C(=O)N(c1cc(Cl)cc(Cl)c1)[C@@H]1CC[C@H]1O [Example 2.12.2R, (2R,3R,4S,5R,6R)-4-(4-(4-bromo-2,3-difluorophenyl)-1H-1,2,3-triazol-1-yl)-N-(3,5-dichlorophenyl)-5-hydroxy-N-((1R,2R)-2-hydroxycyclobutyl)-6-(hydroxymethyl)-3-methoxytetrahydro-2H-pyran-2-carboxamide]
IC50: 100 nM

CO[C@@H]1[C@@H](n2cc(-c3ccc(Br)c(F)c3F)nn2)[C@@H](O)[C@@H](CO)O[C@H]1C(=O)N(c1cc(Cl)cc(C#N)c1)[C@H]1CC[C@@H]1O [Example 2.12.4, (2R,3R,4S,5R,6R)-4-(4-(4-bromo-2,3-difluorophenyl)-1H-1,2,3-triazol-1-yl)-N-(3-chloro-5-cyanophenyl)-5-hydroxy-N-((1S,2S)-2-hydroxycyclobutyl)-6-(hydroxymethyl)-3-methoxytetrahydro-2H-pyran-2-carboxamide]
IC50: 45 nM

CO[C@@H]1[C@@H](n2cc(-c3ccc(Br)c(F)c3F)nn2)[C@@H](O)[C@@H](CO)O[C@H]1C(=O)N(c1cc(Cl)cc(C#N)c1)[C@@H]1CC[C@H]1O [Example 2.12.4R, (2R,3R,4S,5R,6R)-4-(4-(4-bromo-2,3-difluorophenyl)-1H-1,2,3-triazol-1-yl)-N-(3-chloro-5-cyanophenyl)-5-hydroxy-N-((1R,2R)-2-hydroxycyclobutyl)-6-(hydroxymethyl)-3-methoxytetrahydro-2H-pyran-2-carboxamide]
IC50: 135 nM

CO[C@@H]1[C@@H](n2cc(-c3ccc(Br)c(F)c3F)nn2)[C@@H](O)[C@@H](CO)O[C@H]1C(=O)N(c1cc(Br)cc(C#N)c1)[C@H]1CC[C@@H]1O [Example 2.12.5, (2R,3R,4S,5R,6R)-4-(4-(4-bromo-2,3-difluorophenyl)-1H-1,2,3-triazol-1-yl)-N-(3-bromo-5-cyanophenyl)-5-hydroxy-N-((1S,2S)-2-hydroxycyclobutyl)-6-(hydroxymethyl)-3-methoxytetrahydro-2H-pyran-2-carboxamide]
IC50: 25.9 nM

CO[C@@H]1[C@@H](n2cc(-c3ccc(Br)c(F)c3F)nn2)[C@@H](O)[C@@H](CO)O[C@H]1C(=O)N(c1cc(Br)cc(C#N)c1)[C@@H]1CC[C@H]1O [Example 2.12.5R, (2R,3R,4S,5R,6R)-4-(4-(4-bromo-2,3-difluorophenyl)-1H-1,2,3-triazol-1-yl)-N-(3-bromo-5-cyanophenyl)-5-hydroxy-N-((1R,2R)-2-hydroxycyclobutyl)-6-(hydroxymethyl)-3-methoxytetrahydro-2H-pyran-2-carboxamide]
IC50: 78.5 nM

CO[C@@H]1[C@@H](n2cc(-c3ccc(Br)c(F)c3F)nn2)[C@@H](O)[C@@H](CO)O[C@H]1C(=O)N(c1cc(F)cc(C#N)c1)[C@H]1CC[C@@H]1O [Example 2.12.7, (2R,3R,4S,5R,6R)-4-(4-(4-bromo-2,3-difluorophenyl)-1H-1,2,3-triazol-1-yl)-N-(3-cyano-5-fluorophenyl)-5-hydroxy-N-((1S,2S)-2-hydroxycyclobutyl)-6-(hydroxymethyl)-3-methoxytetrahydro-2H-pyran-2-carboxamide]
IC50: 48 nM

CO[C@@H]1[C@@H](n2cc(-c3ccc(Br)c(F)c3F)nn2)[C@@H](O)[C@@H](CO)O[C@H]1C(=O)N(c1cc(F)cc(C#N)c1)[C@@H]1CC[C@H]1O [Example 2.12.7R, (2R,3R,4S,5R,6R)-4-(4-(4-bromo-2,3-difluorophenyl)-1H-1,2,3-triazol-1-yl)-N-(3-cyano-5-fluorophenyl)-5-hydroxy-N-((1R,2R)-2-hydroxycyclobutyl)-6-(hydroxymethyl)-3-methoxytetrahydro-2H-pyran-2-carboxamide]
IC50: 107 nM

CO[C@@H]1[C@@H](n2cc(-c3ccc(C#N)c(F)c3)nn2)[C@@H](O)[C@@H](CO)O[C@H]1C(=O)N(c1cc(Br)cc(C#N)c1)[C@H]1CC[C@@H]1O [Example 2.16.5, (2R,3R,4S,5R,6R)-N-(3-bromo-5-cyanophenyl)-4-(4-(4-cyano-3-fluorophenyl)-1H-1,2,3-triazol-1-yl)-5-hydroxy-N-((1S,2S)-2-hydroxycyclobutyl)-6-(hydroxymethyl)-3-methoxytetrahydro-2H-pyran-2-carboxamide]
IC50: 243 nM

CO[C@@H]1[C@@H](n2cc(-c3ccc(C#N)c(F)c3)nn2)[C@@H](O)[C@@H](CO)O[C@H]1C(=O)N(c1cc(Br)cc(C#N)c1)[C@@H]1CC[C@H]1O [Example 2.16.5R, (2R,3R,4S,5R,6R)-N-(3-bromo-5-cyanophenyl)-4-(4-(4-cyano-3-fluorophenyl)-1H-1,2,3-triazol-1-yl)-5-hydroxy-N-((1R,2R)-2-hydroxycyclobutyl)-6-(hydroxymethyl)-3-methoxytetrahydro-2H-pyran-2-carboxamide]
IC50: 805 nM

CO[C@@H]1[C@@H](n2cc(-c3cc(F)c(Cl)c(Cl)c3)nn2)[C@@H](O)[C@@H](CO)O[C@H]1C(=O)N(c1cc(Cl)cc(C#N)c1)[C@H]1CC[C@@H]1O [Example 2.17.4, (2R,3R,4S,5R,6R)-N-(3-chloro-5-cyanophenyl)-4-(4-(3,4-dichloro-5-fluorophenyl)-1H-1,2,3-triazol-1-yl)-5-hydroxy-N-((1S,2S)-2-hydroxycyclobutyl)-6-(hydroxymethyl)-3-methoxytetrahydro-2H-pyran-2-carboxamide]
IC50: 79.2 nM

CO[C@@H]1[C@@H](n2cc(-c3cc(F)c(Cl)c(Cl)c3)nn2)[C@@H](O)[C@@H](CO)O[C@H]1C(=O)N(c1cc(Cl)cc(C#N)c1)[C@@H]1CC[C@H]1O [Example 2.17.4R, (2R,3R,4S,5R,6R)-N-(3-chloro-5-cyanophenyl)-4-(4-(3,4-dichloro-5-fluorophenyl)-1H-1,2,3-triazol-1-yl)-5-hydroxy-N-((1R,2R)-2-hydroxycyclobutyl)-6-(hydroxymethyl)-3-methoxytetrahydro-2H-pyran-2-carboxamide]
IC50: 224 nM
